Data published in US10722520B2, “Heterocyclic compounds and their use in preventing or treating bacterial infections” (MUTABILIS, priority 2016, dated 2020).

Assays:
[1] = target: AmpC (P99) (Enterobacter cloacae, UniProt P05364); assay: biochemical
[2] = test system: E. coli UFR74; assay: MIC of compound alone, broth microdilution; type: cell-based; conditions: Escherichia coli; strain UFR74: E. coli; SHV-1, DHA-1; read-out: MIC compounds of the invention alone
Summary of the method: (§1)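 Visual end point: lowest concentration that blocked growth. Conditions: cation-adjusted Mueller-Hinton broth, 5×10^5 cfu/mL final inoculum of log-phase bacteria, 16-20 h, 35° C, ambient atmosphere.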

[3] = test system: E. coli 131119; assay: MIC of compound alone, broth microdilution; type: cell-based; conditions: Escherichia coli; strain 131119: E. coli; TEM-1, OXA-48; read-out: MIC compounds of the invention alone
Summary of the method: as §1

[4] = test system: P. aeruginosa CIP107051; assay: MIC of compound alone, broth microdilution; type: cell-based; conditions: Pseudomonas aeruginosa; strain CIP107051: P. aeruginosa; TEM-24; read-out: MIC compounds of the invention alone
Summary of the method: as §1

[5] = test system: E. coli 190317; assay: MIC of compound alone, broth microdilution; type: cell-based; conditions: Escherichia coli; strain 190317: E. coli; TEM-1, SHV-12, CTX-M-15, OXA-1; read-out: MIC compounds of the invention alone
Summary of the method: as §1

[6] = test system: E. coli UFR41; assay: MIC of compound alone, broth microdilution; type: cell-based; conditions: Escherichia coli; strain UFR41: E. coli; TEM-1, CTX-M-15, CMY-2, OXA-1, NDM-4; read-out: MIC compounds of the invention alone
Summary of the method: as §1

[7] = test system: E. coli UFR32; assay: MIC of compound alone, broth microdilution; type: cell-based; conditions: Escherichia coli; strain UFR32: E. coli; TEM-1, VEB-1, OXA-10; read-out: MIC compounds of the invention alone
Summary of the method: as §1

[8] = test system: K. pneumoniae 200047; assay: MIC of compound alone, broth microdilution; type: cell-based; conditions: Klebsiella pneumoniae; strain 200047: K. pneumoniae; TEM-1, SHV-32, CTX-M-15, OXA-1; read-out: MIC compounds of the invention alone
Summary of the method: as §1

[9] = test system: K. oxytoca UFR21; assay: MIC of compound alone, broth microdilution; type: cell-based; conditions: Klebsiella oxytoca; strain UFR21: K. oxytoca; TEM-1, CTX-M-15, OXA-48; read-out: MIC compounds of the invention alone
Summary of the method: as §1

[10] = test system: E. coli UFR61O; assay: MIC of compound alone, broth microdilution; type: cell-based; conditions: Escherichia coli; strain UFR61O: E. coli; TEM-1, KPC-2; read-out: MIC compounds of the invention alone
Summary of the method: as §1

[11] = test system: K. pneumoniae 6299; assay: MIC of compound alone, broth microdilution; type: cell-based; conditions: Klebsiella pneumoniae; strain 6299: K. pneumoniae; TEM-1, SHV-11, OXA-163; read-out: MIC compounds of the invention alone
Summary of the method: as §1

[12] = test system: E. coli UFR39; assay: MIC of compound alone, broth microdilution; type: cell-based; conditions: Escherichia coli, UFR39, read-out: MIC compounds of the invention alone
Summary of the method: as §1

[13] = test system: K. pneumoniae UFR77; assay: MIC of compound alone, broth microdilution; type: cell-based; conditions: Klebsiella pneumoniae; strain UFR77: K. pneumoniae; CMY-2; read-out: MIC compounds of the invention alone
Summary of the method: as §1

[14] = test system: E. coli UFR18; assay: MIC of compound alone, broth microdilution; type: cell-based; conditions: Escherichia coli; strain UFR18: E. coli; CTX-M-15, OXA-204; read-out: MIC compounds of the invention alone
Summary of the method: as §1

[15] = test system: K. pneumoniae 160143; assay: MIC of compound alone, broth microdilution; type: cell-based; conditions: Klebsiella pneumoniae; strain 160143: K. pneumoniae; TEM-1, SHV-1, CTX-M-15, KPC-2, OXA-1; read-out: MIC compounds of the invention alone
Summary of the method: as §1

[16] = test system: E. cloacae UFR85; assay: MIC of compound alone, broth microdilution; type: cell-based; conditions: Enterobacter cloacae; strain UFR85: E. cloacae; TEM-1, CTX-M-15, AmpC; read-out: MIC compounds of the invention alone
Summary of the method: as §1

[17] = test system: E. cloacae UFR70; assay: MIC of compound alone, broth microdilution; type: cell-based; conditions: Enterobacter cloacae; strain UFR70: E. cloacae; TEM-1, CTX-M-15, CMY-2, OXA-1, Porin loss; read-out: MIC compounds of the invention alone
Summary of the method: as §1

[18] = target: TEM-1 (Escherichia coli, UniProt P62593)
[19] = target: OXA-15 (Pseudomonas aeruginosa, UniProt Q51574); assay: biochemical
[20] = target: CTX-M-15 (Escherichia coli, UniProt Q9EXV5)
[21] = target: KPC-2 (Klebsiella pneumoniae, UniProt Q9F663)
[22] = target: OXA-11 (Pseudomonas aeruginosa, UniProt Q06778)
[23] = target: CMY-37 (Citrobacter freundii, UniProt P05193); conditions: read-out: IC50 β-lactamase CMY-37
[24] = target: OXA-1 (Escherichia coli, UniProt P13661)
[25] = test system: E. coli RGN238; assay: microbe, parasite or virus in culture; type: cell-based; conditions: Escherichia coli, RGN238, read-out: MIC compounds of the invention alone
Experimental: Log phase bacterial suspensions were adjusted to a final density of 5×10^5 cfu/mL in cation-adjusted Mueller-Hinton broth (Becton-Dickinson) and added to each well (98 μL). Microplates were incubated for 16-20 h at 35° C. in ambient air. The MIC of the compounds was defined as the lowest concentration of said compounds that prevented bacterial growth as read by visual inspection.

[26] = target: SHV-1 (Klebsiella pneumoniae, UniProt P0AD64)
[27] = target: OXA-48 (Klebsiella pneumoniae, UniProt Q6XEC0)

## O=C1N2CC(n3ccsc3=O)=CC(C2)N1OS(=O)(=O)[O-].[Na+] (stereo not drawn) [Example 1, Sodium [7-oxo-3-(2-oxo-thiazol-3-yl)-1,6-diaza-bicyclo[3.2.1]oct-3-en-6-yl]sulfate]
[1]
  IC50: 30 nM
[2]
  MIC: 16 µg/mL
[3]
  MIC: 2 µg/mL
[4]
  MIC: > 32 µg/mL
[5]
  MIC: 2 µg/mL
[6]
  MIC: 4 µg/mL
[7]
  MIC: 4 µg/mL
[8]
  MIC: 8 µg/mL
[9]
  MIC: 8 µg/mL
[10]
  MIC: 16 µg/mL
[11]
  MIC: 32 µg/mL
[12]
  MIC: 2 µg/mL
[13]
  MIC: 8 µg/mL
[14]
  MIC: 2 µg/mL
[15]
  MIC: 4 µg/mL
[16]
  MIC: 4 µg/mL
[17]
  MIC: 4 µg/mL
[18]
  IC50: 0.25 nM
[19]
  IC50: 92 nM
[20]
  IC50: 0.55 nM
[21]
  IC50: 13 nM
[22]
  IC50: 92 nM
[23]
  IC50: 33 nM
[24]
  IC50: 120 nM
[25]
  MIC: 8 µg/mL
[26]
  IC50: 1.5 nM
[27]
  IC50: 1.9 nM
